Read-outs that look alike come from different tables or passages of the source.
Legend:
hPXR [1] = target: T1, hPXR (Homo sapiens (Human), UniProt O75469); experiment: cell-based hPXR inverse agonistic assay; conditions: for inhibition at 10 µM: read-out: Inverse agonist (% inhibition at 10 μM)
hPXR [2] = target: T1, hPXR; experiment: cell-based hPXR antagonistic assay; conditions: for inhibition at 10 µM: read-out: Antagonist (% inhibition at 10 μM)
hPXR [3] = target: T1, hPXR; experiment: hPXR binding assay; conditions: for inhibition at 10 µM: read-out: Binding (% inhibition at 10 μM)
hPXR [4] = target: T1, hPXR; experiment: cell-based hPXR agonistic assay; conditions: for Agonist (% activation at 10 μM): rifampicin at 10 μM as 100% activation, DMSO (0.3%) as 0%
[5] = read-out: Binding (IC50/μM), hPXR binding assay

T1 sequence (O75469 whole entry): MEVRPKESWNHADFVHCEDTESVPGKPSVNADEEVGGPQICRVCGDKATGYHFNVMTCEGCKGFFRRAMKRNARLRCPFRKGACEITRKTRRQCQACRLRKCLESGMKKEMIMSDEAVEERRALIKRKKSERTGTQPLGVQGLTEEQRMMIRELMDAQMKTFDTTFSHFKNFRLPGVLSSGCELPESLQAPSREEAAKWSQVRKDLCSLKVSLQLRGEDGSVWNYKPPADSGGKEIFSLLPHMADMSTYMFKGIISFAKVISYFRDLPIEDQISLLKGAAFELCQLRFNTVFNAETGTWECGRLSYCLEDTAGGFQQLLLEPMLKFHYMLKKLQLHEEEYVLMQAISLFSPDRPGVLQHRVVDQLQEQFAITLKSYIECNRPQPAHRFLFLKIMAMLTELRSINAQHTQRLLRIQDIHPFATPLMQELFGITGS

Structure (SMILES) | IC50 (hPXR [1]) | IC50 (hPXR [2]) | IC50 (hPXR [3]) | EC50 (hPXR [4]) | Agonist (% activation at 10 μM) (hPXR [4]) | inhibition at 10 µM (hPXR [3]) | IC50 (hPXR [3]; [5]) | EC50 (hPXR [4]; read-out: Agonist (EC50/μM), cell-based hPXR agonistic assay) | inhibition at 10 µM (hPXR [1]) | IC50 (hPXR [1]; read-out: Inverse agonist (IC50/μM), cell-based hPXR inverse agonistic assay) | inhibition at 10 µM (hPXR [2])
COc1ccc(OC)c(-n2nnc(C(=O)Nc3ccccc3)c2C)c1 [A1, 1-(2,5-dimethoxyphenyl)-5-methyl-N-phenyl-1H-1,2,3-triazole-4-carboxamide] | > 30 µM | > 30 µM | > 30 µM | 24.5 ± 4.76 µM | (33 ± 2)% | – | – | – | – | – | –
COc1ccc(OC)c(-n2nnc(C(=O)Nc3ccc(C)cc3)c2C)c1 [A2] | > 30 µM | > 30 µM | – | 2.44 ± 1.02 µM | (32 ± 7)% | 22% | 14 ± 4.79 µM | – | – | – | –
COc1ccc(OC)c(-n2nnc(C(=O)Nc3cccc(C)c3)c2C)c1 [A3] | > 30 µM | > 30 µM | – | – | (30 ± 3)% | 52% | 10.9 ± 0.4 µM | 3.51 ± 0.86 µM | – | – | –
COc1ccc(OC)c(-n2nnc(C(=O)Nc3ccnc(C(C)(C)C)c3)c2C)c1 [A7] | 10.3 ± 3.25 µM | > 30 µM | > 30 µM | > 30 µM | – | – | – | – | 80% | – | –
CCc1cccc(NC(=O)c2nnn(-c3cc(OC)ccc3OC)c2C)c1 [A8] | > 30 µM | > 30 µM | – | > 30 µM | – | 49% | 16.1 ± 0.54 µM | – | – | – | –
COc1ccc(OC)c(-n2nnc(C(=O)Nc3cccc(N(C)C)c3)c2C)c1 [A10] | > 30 µM | > 30 µM | – | > 30 µM | – | 49% | 10.5 ± 2.1 µM | – | – | – | –
COc1ccc(OC)c(-n2nnc(C(=O)Nc3cccc(-n4cccc4)c3)c2C)c1 [A11] | > 30 µM | > 30 µM | – | > 30 µM | – | 24% | 1.41 ± 0.69 µM | – | – | – | –
COc1ccc(OC)c(-n2nnc(C(=O)Nc3cccc(N4CCCCC4)c3)c2C)c1 [A12] | – | > 30 µM | – | > 30 µM | – | 50% | 9.37 ± 3.52 µM | – | 36% | 25.8 ± 6.27 µM | –
COc1ccc(OC)c(-n2nnc(C(=O)Nc3cccc(N4CCOCC4)c3)c2C)c1 [A14] | > 30 µM | > 30 µM | > 30 µM | > 30 µM | – | – | – | – | – | – | –
COc1ccc(OC)c(-n2nnc(C(=O)Nc3cccc(N4CCN(C)CC4)c3)c2C)c1 [A15] | > 30 µM | > 30 µM | > 30 µM | > 30 µM | – | – | – | – | – | – | –
COc1ccc(OC)c(-n2nnc(C(=O)Nc3ccc(N4CCN(C)CC4)cc3)c2C)c1 [A16] | > 30 µM | > 30 µM | > 30 µM | > 30 µM | – | – | – | – | – | – | –
COc1ccc(OC)c(-n2nnc(C(=O)Nc3ccc(CN4CCN(C)CC4)cc3)c2C)c1 [A17] | > 30 µM | > 30 µM | > 30 µM | > 30 µM | – | – | – | – | – | – | –
CCOc1cc(NC(=O)c2nnn(-c3cc(OC)ccc3OC)c2C)nc(OCC)n1 [A18] | > 30 µM | > 30 µM | – | > 30 µM | – | 36% | 12.6 ± 3.09 µM | – | – | – | –
COc1ccc(OC)c(-n2nnc(C(=O)Nc3cc(-n4cnc(C)c4)cc(C(F)(F)F)c3)c2C)c1 [A20] | > 30 µM | > 30 µM | > 30 µM | > 30 µM | – | – | – | – | – | – | –
COc1ccc(OC)c(-n2nnc(C(=O)Nc3ccc(CN4CCN(C)CC4)c(C(F)(F)F)c3)c2C)c1 [A21] | > 30 µM | > 30 µM | > 30 µM | > 30 µM | – | – | – | – | – | – | –
COC(=O)c1ccc(NC(=O)c2nnn(-c3cc(OC)ccc3OC)c2C)cc1N1CCCC1 [A22] | 10.6 ± 8.63 µM | > 30 µM | > 30 µM | > 30 µM | – | – | – | – | 129% | – | –
COc1ccc(OC)c(-n2nnc(C(=O)Nc3ccc4c(c3)Nc3ccccc3CC4)c2C)c1 [A23] | > 30 µM | 13.4 ± 0.12 µM | > 30 µM | > 30 µM | – | – | – | – | – | – | 23%
COc1ccc(OC)c(-n2nnc(C(=O)Nc3cc(C)ccc3OC)c2C)c1 [A25] | 20.6 ± 0.42 µM | 12 ± 2 µM | – | > 30 µM | – | 73% | 1.36 ± 0.23 µM | – | 53% | – | 70%
COc1ccc(OC)c(-n2nnc(C(=O)Nc3cc(C(C)(C)C)ccc3O)c2C)c1 [B2, N-(5-(tert-butyl)-2-hydroxyphenyl)-1-(2,5-dimethoxyphenyl)-5-methyl-1H-1,2,3-triazole-4-carboxamide] | > 30 µM | > 30 µM | – | > 30 µM | – | 84% | 2.33 ± 0.43 µM | – | – | – | –
COc1ccc(OC)c(-n2nnc(C(=O)Nc3cc(C(C)(C)C)ccc3OC(=O)c3nnn(-c4cc(OC)ccc4OC)c3C)c2C)c1 [B3, 4-(tert-butyl)-2-(1-(2,5-dimethoxyphenyl)-5-methyl-1H-1,2,3-triazole-4-carboxamido)phenyl 1-(2,5-dimethoxyphenyl)-5-methyl-1H-1,2,3-triazole-4-carboxylate] | > 30 µM | > 30 µM | > 30 µM | 0.59 µM | (55 ± 6)% | – | – | – | – | – | –
COc1ccc(OC)c(-n2nnc(C(=O)Nc3cc(C(C)(C)C)ccc3OCCOCCOCCOCCO)c2C)c1 [B10] | 0.43 ± 0.14 µM | 1.92 ± 0.23 µM | – | > 30 µM | – | 62% | 2.34 ± 0.57 µM | – | 95% | – | 102%
COc1ccc(OC)c(-n2nnc(C(=O)Nc3cc(C(C)(C)C)ccc3OC(C)C)c2C)c1 [B12] | 0.0074 µM | 0.049 ± 0.01 µM | – | > 30 µM | – | 88% | 0.021 ± 0.005 µM | – | 119% | – | 107%
COc1ccc(OC)c(-n2nnc(C(=O)Nc3cc(C(C)(C)C)ccc3OCCCCCCCCI)c2C)c1 [B19] | 0.43 ± 0.14 µM | 2.48 µM | – | > 30 µM | – | 68% | 0.5 ± 0.12 µM | – | 95% | – | 86%
COc1ccc(OC)c(-n2nnc(C(=O)Nc3cc(C(C)(C)C)ccc3OCCCCCCCCOc3ccc(C(C)(C)C)cc3NC(=O)c3nnn(-c4cc(OC)ccc4OC)c3C)c2C)c1 [B20] | > 30 µM | > 30 µM | > 30 µM | > 30 µM | – | – | – | – | – | – | –
COc1ccc(OC)c(-n2nnc(C(=O)Nc3cc(C(C)(C)C)ccc3OCCCCN3CCN(C)CC3)c2C)c1 [B22, N-(5-(tert-butyl)-2-(4-(4-methylpiperazin-1-yl)butoxy)phenyl)-1-(2,5-dimethoxyphenyl)-5-methyl-1H-1,2,3-triazole-4-carboxamide] | 3.08 ± 0.55 µM | 6.09 ± 0.85 µM | > 30 µM | > 30 µM | – | – | – | – | 168% | – | 114%
COc1ccc(OC)c(-n2nnc(C(=O)Nc3cc(C(C)(C)C)ccc3OCCOCCOCCOCCOCCOCCOc3ccc(C(C)(C)C)cc3NC(=O)c3nnn(-c4cc(OC)ccc4OC)c3C)c2C)c1 [B23, N,N′-((3,6,9,12,15-pentaoxaheptadecane-1,17-diylbis(oxy))bis(3-(tert-butyl)-6,1-phenylene))bis(1-(2,5-dimethoxyphenyl)-5-methyl-1H-1,2,3-triazole-4-carboxamide)] | 16.7 ± 3.34 µM | > 30 µM | > 30 µM | > 30 µM | – | – | – | – | 45% | – | –

From patent US20250282736A1, “SMALL MOLECULE MODULATORS OF HUMAN PREGNANE X RECEPTOR” (ST. JUDE CHILDREN'S RESEARCH HOSPITAL, priority 2022, published 2025)
